Where two headings read alike, the source gives them in different places.
Tests used:
Assay type in all cases: in vivo
Abutilon theophrasti [1] = test: Herbicidal action in the field (post-emergence treatment)
Description: (§1) The mixtures according to the invention were applied pre- or post-emergence (foliar treatment). The herbicidal compounds of component B were applied in the formulation in which they are present as commercially available product.
(§2) Some of the experiments were greenhouse experiments and some were field trials on mini plots (on a site with sandy loam (pH 6.2 to 7.0) or sandy clay (pH 5.0 to 6.7) as the soil).
(§3) The harmful plants differed with regard to size and developmental state; on average, they were 5 to 20 cm long, depending on the growth habit.
(§4) The herbicidally active compounds of components A) and B) were applied in succession or jointly, in the latter case in some cases as a tank mix and in some cases as a readymix, in the form of emulsions, aqueous solutions or suspensions, the vehicle being water ([…]). In the case of the field trials, application was effected with the aid of a mobile plot sprayer.
(§5) The test period extended over 3 to 8 weeks, and the stands were also observed at later points in time.
(§6) Damage by the herbicidal compositions was evaluated with reference to a scale of 0% to 100% in comparison with untreated control plots. 0 means no damage and 100 means complete destruction of the plants.
(§7) In these examples, the value E at which only an additive effect of the individual active ingredients is to be expected was calculated by the method of S. R. Colby (Calculating synergistic and antagonistic responses of herbicide combinations, Weeds 15, 20 pp (1967).

Alopecurus myosuroides = test: as above
Description: as §1, §2, §3, §4, §5, §6, §7

Anthemis mixta = test: as above; conditions: Ia.3 75 g/ha a.s.
Description: as §1, §2, §3, §4, §5, §6, §7

Bidens pilosa = test: as above
Description: as §1, §2, §3, §4, §5, §6, §7

Brachiaria plantaginea = test: as above; conditions: Ia.3 75 g/ha a.s.
Description: as §1, §2, §3, §4, §5, §6, §7

Chenopodium album = test: as above; conditions: Ia.3 50 g/ha a.s.
Description: as §1, §2, §3, §4, §5, §6, §7

Cyperus species = test: as above
Description: as §1, §2, §3, §4, §5, §6, §7

Digitaria adscendens = test: as above
Description: as §1, §2, §3, §4, §5, §6, §7

Digitaria sanguinalis [2] = test: as above; conditions: Ia.3 50 g/ha a.s.
Description: as §1, §2, §3, §4, §5, §6, §7

Echinochloa crus-galli [3] = test: as above; conditions: Ia.3 75 g/ha a.s.
Description: as §1, §2, §3, §4, §5, §6, §7

Galium aparine = test: as above
Description: as §1, §2, §3, §4, §5, §6, §7

Geranium carolinianum = test: as above; conditions: Ia.3 150 g/ha a.s.
Description: as §1, §2, §3, §4, §5, §6, §7

Ipomoea acuminata = test: as above
Description: as §1, §2, §3, §4, §5, §6, §7

[4] = test system: Ipomoea purpurea var. diversifolia; test: as above
Description: as §1, §2, §3, §4, §5, §6, §7

Lolium perenne = test: as above; conditions: Ia.3 75 g/ha a.s.
Description: as §1, §2, §3, §4, §5, §6, §7

Phalaris spec. = test: as above; conditions: Ia.3 75 g/ha a.s.
Description: as §1, §2, §3, §4, §5, §6, §7

Richardia brasiliensis = test: as above; conditions: Ia.3 75 g/ha a.s.
Description: as §1, §2, §3, §4, §5, §6, §7

Setaria faberi = test: as above
Description: as §1, §2, §3, §4, §5, §6, §7

Setaria viridis [5] = test: as above; conditions: Ia.3 100 g/ha a.s.
Description: as §1, §2, §3, §4, §5, §6, §7

Sorghum bicolor = test: as above; conditions: Ia.3 (title: Ia.33) 75 g/ha a.s. (Table 68)
Description: as §1, §2, §3, §4, §5, §6, §7

Stellaria media = test: as above
Description: as §1, §2, §3, §4, §5, §6, §7

Abutilon theophrasti [6] = test: Herbicidal action in the greenhouse (post-emergence treatment); conditions: Ia.3 15.6 g/ha a.s.
Description: as §1, §2, §3, §4, §5, §6, §7

Amaranthus retroflexus [7] = test: as above; conditions: Amaranthus retroflexus, post-emergence
Description: as §1, §2, §3, §4, §5, §6, §7

Ipomoea ssp. = test: as above
Description: as §1, §2, §3, §4, §5, §6, §7

Setaria viridis [8] = test: as above; conditions: Ia.3 15.6 g/ha a.s.
Description: as §1, §2, §3, §4, §5, §6, §7

Veronica ssp. = test: as above; conditions: Ia.3 31.2 g/ha a.s.
Description: as §1, §2, §3, §4, §5, §6, §7

Amaranthus retroflexus [9] = test: Herbicidal action in the greenhouse (pre-emergence treatment); conditions: Ia.3 31.2 g/ha a.s.
Description: as §1, §2, §3, §4, §5, §6, §7

Cyperus iria = test: as above; conditions: Ia.3 31.2 g/ha a.s.
Description: as §1, §2, §3, §4, §5, §6, §7

Digitaria sanguinalis [10] = test: as above
Description: as §1, §2, §3, §4, §5, §6, §7

Echinochloa crus-galli [11] = test: as above; conditions: Ia.3 62.5 g/ha a.s.
Description: as §1, §2, §3, §4, §5, §6, §7

Setaria viridis [12] = test: as above; conditions: Ia.3 15.6 g/ha a.s.
Description: as §1, §2, §3, §4, §5, §6, §7

## Cn1ncc(C(=O)c2ccc(S(C)(=O)=O)c(C3=NOCC3)c2Cl)c1O [Ia.3, 4-[2-chloro-3-(4,5-dihydroisoxazol-3-yl)-4-methylsulfonylbenzoyl]-1-methyl-5-hydroxy-1H-pyrazole]
Abutilon theophrasti [1]; Ia.3 50 g/ha a.s. (Table 5)
  Damage: 85%
Abutilon theophrasti [1]; Ia.3 75 g/ha a.s. (Table 66)
  Damage: 85%
Alopecurus myosuroides; Ia.3 7.5 g/ha a.s. (Table 7)
  Damage: 10%
Alopecurus myosuroides; Ia.3 75 g/ha a.s. (Table 8)
  Damage: 10%
Anthemis mixta
  Damage: 68%
Bidens pilosa; Ia.3 75 g/ha a.s. (Table 13)
  Damage: 30%
Bidens pilosa; Ia.3 75 g/ha a.s. (Table 58)
  Damage: 25%
Bidens pilosa; Ia.3 75 g/ha a.s. (Table 69)
  Damage: 25%
Brachiaria plantaginea
  Damage: 96%
Brachiaria plantaginea; Table 80, Brachiaria plantaginea, field, post-emergence
  Damage (%): 95%
Chenopodium album
  Damage: 92%
Cyperus species; Ia.3 75 g/ha a.s. (Table 70)
  Damage: 5%
Cyperus species; Ia.3 75 g/ha a.s. (Table 71)
  Damage: 0%
Digitaria adscendens; Ia.3 75 g/ha a.s. (Table 33)
  Damage: 90%
Digitaria adscendens; Ia.3 75 g/ha a.s. (Table 37)
  Damage: 90%
Digitaria sanguinalis [2]
  Damage: 57%
Echinochloa crus-galli [3]
  Damage: 98%
Galium aparine; Ia.3 75 g/ha a.s. (Table 9)
  Damage: 63%
Galium aparine; Ia.3 75 g/ha a.s. (Table 54)
  Damage: 60%
Galium aparine; Ia.3 75 g/ha a.s. (Table 64)
  Damage: 60%
Geranium carolinianum
  Damage: 30%
Ipomoea acuminata; Ia.3 75 g/ha a.s. (Table 15)
  Damage: 25%
Ipomoea acuminata; Ia.3 75 g/ha a.s. (Table 29)
  Damage: 25%
Ipomoea acuminata; Ia.3 75 g/ha a.s. (Table 35)
  Damage: 25%
Ipomoea acuminata; Ia.3 75 g/ha a.s. (Table 76)
  Damage: 23%
[4]; Ia.3 75 g/ha a.s. (Table 16)
  Damage: 93%
[4]; Ia.3 75 g/ha a.s. (Table 65)
  Damage: 94%
Lolium perenne
  Damage: 10%
Phalaris spec.
  Damage: 20%
Richardia brasiliensis
  Damage: 70%
Setaria faberi; Ia.3 75 g/ha a.s. (Table 59)
  Damage: 99%
Setaria faberi; Ia.3 75 g/ha a.s. (Table 67)
  Damage: 95%
Setaria viridis [5]
  Damage: 75%
Sorghum bicolor
  Damage: 78%
Stellaria media; Ia.3 75 g/ha a.s. (Table 14)
  Damage: 91%
Stellaria media; Ia.3 75 g/ha a.s. (Table 63)
  Damage: 91%
Abutilon theophrasti [6]
  Damage: 70%
Amaranthus retroflexus [7]; read-out: Damage, Ia.3 15.6 g/ha a.s. (Table 10)
  pest or weed control at 15.6 g/ha: 80%
Amaranthus retroflexus [7]; read-out: Damage, Ia.3 15.6 g/ha a.s. (Table 25)
  pest or weed control at 15.6 g/ha: 55%
Ipomoea ssp.; Ia.3 31.2 g/ha a.s. (Table 27)
  Damage: 75%
Ipomoea ssp.; Ia.3 31.2 g/ha a.s. (Table 74)
  Damage: 75%
Setaria viridis [8]
  Damage: 80%
Veronica ssp.
  Damage: 80%
Amaranthus retroflexus [9]
  Damage: 40%
Cyperus iria
  Damage: 50%
Digitaria sanguinalis [10]; Ia.3 62.5 g/ha a.s. (Table 40)
  Damage: 60%
Digitaria sanguinalis [10]; Ia.3 62.5 g/ha a.s. (Table 47)
  Damage: 60%
Echinochloa crus-galli [11]
  Damage: 60%
Setaria viridis [12]
  Damage: 20%
